# Reference: PMC9404985, “Development of Dicationic Bisguanidine-Arylfuran Derivatives as Potent Agents against Gram-Negative Bacteria” (Antibiotics, 2022)
# Tested on: P. aeruginosa (CCUG #59347)
# Assay: Antibacterial activity against isolates (Omnilog, Biolog redox dye)
# Format: cell-based, Pseudomonas aeruginosa
# Conditions: Pseudomonas aeruginosa, CCUG59347; ca-MH broth, 24 h, 37 °C
# Method: (§1) The antibacterial activities of eight compounds (1, 3, 4, 6, 8, 10, 16, and 17) were tested against 10 different isolates of Gram-negative bacteria from human and other sources, two E. coli (CCUG #67180 and CCUG #17620/ATCC #25922, control strain), two K. pneumoniae (CCUG #58547 and CCUG #225T), two P. aeruginosa (CCUG #17619 and CCUG #59347), two A. baumannii (CCUG #57035 and CCUG #57250), E. cloacae (CCUG #6323T), and E. hormaechei (CCUG #58962) in a 96-well plate format. […] Bacterial mass from the ten isolates grown overnight on horse blood or Mueller–Hinton agar plates was suspended in ca-MH and adjusted to a final inoculum cell density of ~5 × 10^5 CFU/mL. For all assays, Biolog redox dye A diluted 100× from the stock solution was used for measurements of all ten isolates (up to a total volume of 120 µL per well). All plates included one well per isolate with only inoculum and dye but no test compound (i.e., positive control) and one well per isolate with inoculum, dye and DMSO diluted 1667×, corresponding to the DMSO concentration in the wells with the highest concentration of test compound. All measurements were performed using the Omnilog microplate reader (Biolog, Hayward, CA, USA) where the 96-well plates were read at 15 min intervals for a total of 24 h at 37 °C.
Structure (SMILES),EC50,EC90
"N=C(N)Nc1ccc(-c2ccc(C(=O)N3CCc4cc(NC(=N)N)ccc43)o2)cc1 [Compound 17, (5-(4-guanidinophenyl)furan-2-yl)(5-guanidinoindolin-1-yl)methanone]",17 µM,23.9 µM

# Same assay, conditions: SI = ((EC50 MCF-7 + EC50 HepG2)/2)/EC50 bacterial strain
row,Structure (SMILES),Selectivity index P. aeruginosa (CCUG #59347)
1,"N=C(N)Nc1ccc(-c2ccc(C(=O)N3CCc4cc(NC(=N)N)ccc43)o2)cc1 [Compound 17, (5-(4-guanidinophenyl)furan-2-yl)(5-guanidinoindolin-1-yl)methanone]",11.4

# Tested on: K. pneumoniae (CCUG #58547)
# Assay: as above
# Format: cell-based, Klebsiella pneumoniae
# Conditions: Klebsiella pneumoniae, CCUG58547; ca-MH broth, 24 h, 37 °C
# Method: as §1
Structure (SMILES),EC50,EC90
"N=C(N)Nc1ccc(-c2ccc(C(=O)N3CCc4cc(NC(=N)N)ccc43)o2)cc1 [Compound 17, (5-(4-guanidinophenyl)furan-2-yl)(5-guanidinoindolin-1-yl)methanone]",> 200 µM,> 200 µM

# Tested on: P. aeruginosa (CCUG #17619)
# Assay: as above
# Format: cell-based, Pseudomonas aeruginosa
# Conditions: Pseudomonas aeruginosa, CCUG17619; ca-MH broth, 24 h, 37 °C
# Method: (§2) The antibacterial activities of eight compounds (1, 3, 4, 6, 8, 10, 16, and 17) were tested against 10 different isolates of Gram-negative bacteria from human and other sources, two E. coli (CCUG #67180 and CCUG #17620/ATCC #25922, control strain), two K. pneumoniae (CCUG #58547 and CCUG #225T), two P. aeruginosa (CCUG #17619 and CCUG #59347), two A. baumannii (CCUG #57035 and CCUG #57250), E. cloacae (CCUG #6323T), and E. hormaechei (CCUG #58962) in a 96-well plate format. The compounds to test were 3-fold diluted in six steps in cation-adjusted Mueller-Hinton (ca-MH) broth to final concentrations spanning from 30 to 0.12 µM, i.e., a 1667–416,667 times dilution from the 50 mM stocks. Bacterial mass from the ten isolates grown overnight on horse blood or Mueller–Hinton agar plates was suspended in ca-MH and adjusted to a final inoculum cell density of ~5 × 10^5 CFU/mL. For all assays, Biolog redox dye A diluted 100× from the stock solution was used for measurements of all ten isolates (up to a total volume of 120 µL per well). All plates included one well per isolate with only inoculum and dye but no test compound (i.e., positive control) and one well per isolate with inoculum, dye and DMSO diluted 1667×, corresponding to the DMSO concentration in the wells with the highest concentration of test compound. All measurements were performed using the Omnilog microplate reader (Biolog, Hayward, CA, USA) where the 96-well plates were read at 15 min intervals for a total of 24 h at 37 °C.
Structure (SMILES),EC50,EC90
"N=C(N)Nc1ccc(-c2ccc(C(=O)N3CCc4cc(NC(=N)N)ccc43)o2)cc1 [Compound 17, (5-(4-guanidinophenyl)furan-2-yl)(5-guanidinoindolin-1-yl)methanone]",22.9 µM,27 µM

# Same assay, conditions: SI = ((EC50 MCF-7 + EC50 HepG2)/2)/EC50 bacterial strain
row,Structure (SMILES),Selectivity index P. aeruginosa (CCUG #17619)
1,"N=C(N)Nc1ccc(-c2ccc(C(=O)N3CCc4cc(NC(=N)N)ccc43)o2)cc1 [Compound 17, (5-(4-guanidinophenyl)furan-2-yl)(5-guanidinoindolin-1-yl)methanone]",8.5

# Tested on: A. baumannii (CCUG #57250)
# Assay: as above
# Format: cell-based, Acinetobacter baumannii
# Conditions: Acinetobacter baumannii, CCUG57250, 24 h, ca-MH broth, 24 h, 37 °C
# Method: as §2
row,Structure (SMILES),EC90
1,"N=C(N)Nc1ccc(-c2ccc(C(=O)N3CCc4cc(NC(=N)N)ccc43)o2)cc1 [Compound 17, (5-(4-guanidinophenyl)furan-2-yl)(5-guanidinoindolin-1-yl)methanone]",90.3 µM

# Same assay, conditions: Acinetobacter baumannii, CCUG57250; ca-MH broth, 24 h, 37 °C
row,Structure (SMILES),EC50
1,"N=C(N)Nc1ccc(-c2ccc(C(=O)N3CCc4cc(NC(=N)N)ccc43)o2)cc1 [Compound 17, (5-(4-guanidinophenyl)furan-2-yl)(5-guanidinoindolin-1-yl)methanone]",61.8 µM

# Same assay, conditions: SI = ((EC50 MCF-7 + EC50 HepG2)/2)/EC50 bacterial strain
row,Structure (SMILES),Selectivity index A. baumannii (CCUG #57250)
1,"N=C(N)Nc1ccc(-c2ccc(C(=O)N3CCc4cc(NC(=N)N)ccc43)o2)cc1 [Compound 17, (5-(4-guanidinophenyl)furan-2-yl)(5-guanidinoindolin-1-yl)methanone]",3.1

# Tested on: E. coli MG1655 (CGSC #6300)
# Assay: Antibacterial resazurin assay, laboratory strain
# Conditions: Escherichia coli, MG1655, 18 h, read-out: Eco EC50
row,Structure (SMILES),EC50
1,"N=C(N)Nc1ccc(-c2ccc(C(=O)N3CCc4cc(NC(=N)N)ccc43)o2)cc1 [Compound 17, (5-(4-guanidinophenyl)furan-2-yl)(5-guanidinoindolin-1-yl)methanone]",1.7 µM

# Same assay, conditions: Escherichia coli, MG1655, 18 h, read-out: Eco EC90
row,Structure (SMILES),EC90
1,"N=C(N)Nc1ccc(-c2ccc(C(=O)N3CCc4cc(NC(=N)N)ccc43)o2)cc1 [Compound 17, (5-(4-guanidinophenyl)furan-2-yl)(5-guanidinoindolin-1-yl)methanone]",4.3 µM

# Same assay, conditions: mean of MCF-7 and HepG2 EC50 over bacterial EC50, laboratory strain
row,Structure (SMILES),Selectivity index E. coli
1,"N=C(N)Nc1ccc(-c2ccc(C(=O)N3CCc4cc(NC(=N)N)ccc43)o2)cc1 [Compound 17, (5-(4-guanidinophenyl)furan-2-yl)(5-guanidinoindolin-1-yl)methanone]",114.3

# Tested on: E. cloacae (CCUG #6323T)
# Assay: Antibacterial activity against isolates (Omnilog, Biolog redox dye)
# Format: cell-based, Enterobacter cloacae
# Conditions: Enterobacter cloacae; ca-MH broth, 24 h, 37 °C
# Method: as §2
Structure (SMILES),EC50,EC90
"N=C(N)Nc1ccc(-c2ccc(C(=O)N3CCc4cc(NC(=N)N)ccc43)o2)cc1 [Compound 17, (5-(4-guanidinophenyl)furan-2-yl)(5-guanidinoindolin-1-yl)methanone]",5.6 µM,8.6 µM

# Same assay, conditions: SI = ((EC50 MCF-7 + EC50 HepG2)/2)/EC50 bacterial strain
row,Structure (SMILES),Selectivity index E. cloacae (CCUG #6323T)
1,"N=C(N)Nc1ccc(-c2ccc(C(=O)N3CCc4cc(NC(=N)N)ccc43)o2)cc1 [Compound 17, (5-(4-guanidinophenyl)furan-2-yl)(5-guanidinoindolin-1-yl)methanone]",34.8

# Tested on: not listed separately
# Assay: Cytotoxicity assay (PrestoBlue) MCF-7
# Format: cell-based
# Conditions: human, MCF-7 cells (breast cancer cell line), 24 h incubation
# Method: (§3) The cytotoxicity levels of all compounds were evaluated against human Michigan Cancer Foundation-7 (MCF-7) and Hepatoma G2 cell line (HepG2) cell lines. MCF-7 is an extensively characterized breast cancer cell line isolated in 1970 [41], while HepG2 cells were derived from a hepatoma in 1975 [42]. Both cell lines grow robustly during in vitro culture and have been widely used for cytotoxicity testing. Cells of hepatic origin, such as HepG2, are of particular relevance for toxicity studies as many drugs accumulate in the liver during metabolic conversion. Cells were grown in Dulbecco’s Modified Eagle Medium supplemented with 10% fetal calf serum and kept in exponential growth, as previously reported. Before the assay, cells were reseeded into 96-well microtiter plates at a density allowing continued exponential growth and let to settle for 24 h. The compounds were added from a stock solution in DMSO, for a final concentration of 0.3% v/v of the solvent in the culture medium. After 24 h of incubation in presence of the compound, cell viability was assayed using PrestoBlue Cell Viability Reagent (resazurin-based solution, ThermoFisher, Waltham, MA, USA) according to the manufacturer’s instructions. […] Each assay contained a DMSO control at the equivalent starting concentration, positive control (uninhibited cell growth) and negative control (cell medium only). Survival was expressed as percentage of the solvent-only control. […] The Selectivity Index (SI) for each compound and bacterial strain was calculated as the ratio between the mean of the EC50 values for the two human cell lines and the EC50 for the bacterial strain in question ((EC50 MCF-7 + EC50 HepG2)/2)/EC50 bacterial strain).
row,Structure (SMILES),EC50 at 24 h
1,"N=C(N)Nc1ccc(-c2ccc(C(=O)N3CCc4cc(NC(=N)N)ccc43)o2)cc1 [Compound 17, (5-(4-guanidinophenyl)furan-2-yl)(5-guanidinoindolin-1-yl)methanone]",149 µM

# Tested on: not listed separately
# Assay: Cytotoxicity assay (PrestoBlue) HepG2
# Format: cell-based
# Conditions: human, HepG2 cells (hepatoma cell line), 24 h incubation
# Method: as §3
row,Structure (SMILES),EC50 at 24 h
1,"N=C(N)Nc1ccc(-c2ccc(C(=O)N3CCc4cc(NC(=N)N)ccc43)o2)cc1 [Compound 17, (5-(4-guanidinophenyl)furan-2-yl)(5-guanidinoindolin-1-yl)methanone]",239 µM

# Tested on: E. coli (CCUG #17620/ ATCC #25922)
# Assay: Antibacterial activity against isolates (Omnilog, Biolog redox dye)
# Format: cell-based, Escherichia coli
# Conditions: Escherichia coli; ca-MH broth, 24 h, 37 °C
# Method: as §2
Structure (SMILES),EC50,EC90
"N=C(N)Nc1ccc(-c2ccc(C(=O)N3CCc4cc(NC(=N)N)ccc43)o2)cc1 [Compound 17, (5-(4-guanidinophenyl)furan-2-yl)(5-guanidinoindolin-1-yl)methanone]",16.4 µM,24 µM

# Same assay, conditions: SI = ((EC50 MCF-7 + EC50 HepG2)/2)/EC50 bacterial strain
row,Structure (SMILES),Selectivity index E. coli (CCUG #17620/ ATCC #25922)
1,"N=C(N)Nc1ccc(-c2ccc(C(=O)N3CCc4cc(NC(=N)N)ccc43)o2)cc1 [Compound 17, (5-(4-guanidinophenyl)furan-2-yl)(5-guanidinoindolin-1-yl)methanone]",11.8

# Tested on: E. coli (CCUG #67180)
# Assay: as above
# Format: cell-based, Escherichia coli
# Conditions: Escherichia coli, CCUG67180, 24 h, ca-MH broth, 24 h, 37 °C
# Method: as §2
row,Structure (SMILES),EC90
1,"N=C(N)Nc1ccc(-c2ccc(C(=O)N3CCc4cc(NC(=N)N)ccc43)o2)cc1 [Compound 17, (5-(4-guanidinophenyl)furan-2-yl)(5-guanidinoindolin-1-yl)methanone]",19.9 µM

# Same assay, conditions: Escherichia coli, CCUG67180; ca-MH broth, 24 h, 37 °C
row,Structure (SMILES),EC50
1,"N=C(N)Nc1ccc(-c2ccc(C(=O)N3CCc4cc(NC(=N)N)ccc43)o2)cc1 [Compound 17, (5-(4-guanidinophenyl)furan-2-yl)(5-guanidinoindolin-1-yl)methanone]",14.2 µM

# Same assay, conditions: SI = ((EC50 MCF-7 + EC50 HepG2)/2)/EC50 bacterial strain
row,Structure (SMILES),Selectivity index E. coli (CCUG #67180)
1,"N=C(N)Nc1ccc(-c2ccc(C(=O)N3CCc4cc(NC(=N)N)ccc43)o2)cc1 [Compound 17, (5-(4-guanidinophenyl)furan-2-yl)(5-guanidinoindolin-1-yl)methanone]",13.7
